This data set in a line: in vitro. The note with it: human, hela cells, % viability.

Molecules are shown by their SMILES.

Turning to `Cc1ccc(NC(=O)CN2C(=O)c3ccccc3C2=O)c(C(=O)O)c1` [CBK262837], the viability at 28.5 h, 10 µM was 87.5%.

As for `CC(Oc1cccc2cccnc12)C(=O)N/N=C/c1ccc(-c2ccc(Br)cc2)o1` (stereo not drawn) [CBK262838], the viability at 28.5 h, 10 µM came out at 93.4%.

Regarding `O=C(NC(C(=O)N/N=C/c1ccc(O)cc1)c1n[nH]c(=O)c2ccccc12)c1ccccc1` (stereo not drawn) [CBK262839], the viability at 28.5 h, 10 µM came to 116%.

Consider `CC1(C)NC(=O)N(CC(O)COc2ccc([N+](=O)[O-])cc2)C1=O` (stereo not drawn) [CBK262840], for which the viability at 28.5 h, 10 µM was 98.8%.

In the case of `COc1cc(/C=N/Nc2nc(-c3ccccc3)cc(-c3ccc(OC)c(OC)c3)n2)ccc1O` [CBK262841], the viability at 28.5 h, 10 µM was 52.2%.

Consider `Cc1nnc(SCC(=O)N/N=C/c2coc3ccccc3c2=O)n1-c1ccccc1` [CBK262842], for which the viability at 28.5 h, 10 µM stood at 90.3%.

Take `O=C(O)c1ccccc1-c1ccccc1C(=O)Nc1ccccc1-c1ccccc1` [CBK262843]: the viability at 28.5 h, 10 µM amounted to 84.4%.

Take `CC1=CC(C)C2(COC(=O)Nc3ccccc3)COC(c3cccnc3)C1C2C` (stereo not drawn) [CBK262844]: the viability at 28.5 h, 10 µM came out at 86.2%.

As to `O=C(Nc1cccc(-c2nc3ncccc3o2)c1)c1ccc(Cl)c([N+](=O)[O-])c1` [CBK262845], the viability at 28.5 h, 10 µM came to 88.8%.

As for `CCOc1cccc(/C=N\NC(=O)C2COc3cc4ccccc4cc3O2)c1O` (stereo not drawn) [CBK262846], the viability at 28.5 h, 10 µM is 110%.

For `O=C(NC(C(=O)N/N=C/c1coc2ccccc2c1=O)c1n[nH]c(=O)c2ccccc12)c1ccccc1` (stereo not drawn) [CBK262847], the viability at 28.5 h, 10 µM turned out to be 95.3%.

For `O=[N+]([O-])c1ccc(N2CCNCC2)cc1NCCO` [CBK262851], the viability at 28.5 h, 10 µM came out at 75.1%.

With `O=c1oc(-c2cccc(F)c2)nc2ccc(Cc3ccc4nc(-c5cccc(F)c5)oc(=O)c4c3)cc12` [CBK262856], the viability at 28.5 h, 10 µM was 120%.

For `CC(=O)Nc1ccc(C(=O)Nc2ccc(-c3nc4ccccc4[nH]3)cc2)cc1` [CBK262857], the viability at 28.5 h, 10 µM amounted to 84.9%.

With `NNc1nc(-c2ccc(Br)cc2)nc2ccccc12` [CBK262860], the viability at 28.5 h, 10 µM worked out at 94.6%.

Turning to `Cc1ccccc1NC(=O)Nc1ccc(OCc2ccccc2)cc1` [CBK262861], the viability at 28.5 h, 10 µM came out at 108%.

On to `O=C(CCN1C(=O)/C(=C/c2ccc(F)cc2)SC1=S)NNC(=O)c1cccnc1` [CBK262862], for which the viability at 28.5 h, 10 µM was determined as 104%.

For the compound `O=C(CSc1nnc(-c2ccccc2)n1-c1ccccc1)N/N=C/c1cccc2cccnc12` [CBK262863], the viability at 28.5 h, 10 µM came out at 91%.

In the case of `Cc1cc(C)nc(N/N=C/c2cn(-c3ccccc3)nc2-c2ccc([N+](=O)[O-])cc2)n1` [CBK262864], the viability at 28.5 h, 10 µM is 90.5%.

Take `O=C(CSc1nnc(-c2ccncc2)n1-c1ccccc1)N/N=C/c1coc2ccccc2c1=O` [CBK262866]: the viability at 28.5 h, 10 µM turned out to be 101%.

Turning to `CCOc1ccc(C(=O)Nc2ccc(Cc3ccncc3)cc2)cc1[N+](=O)[O-]` [CBK262867], the viability at 28.5 h, 10 µM worked out at 114%.

On to `Cc1onc(-c2ccccc2)c1C(=O)NCCCn1ccnc1` [CBK262870], for which the viability at 28.5 h, 10 µM is 96.2%.

In the case of `Cc1ccc(C(C)(C)CC(C)NC2C3CC4CC(C3)CC2C4)o1` (stereo not drawn) [CBK262871], the viability at 28.5 h, 10 µM was 93.9%.

For `Cc1ccc(C(C)(C)CC(C)NCc2cccc(C(F)(F)F)c2)o1` (stereo not drawn) [CBK262872], the viability at 28.5 h, 10 µM turned out to be 95%.

On to `Cc1ccc(C(C)(C)CC(C)NCc2ccc(Cl)cc2)o1` (stereo not drawn) [CBK262873], for which the viability at 28.5 h, 10 µM is 95.8%.

As to `Cc1ccccc1-n1nnnc1C(c1ccccc1)N(C)Cc1cccc([N+](=O)[O-])c1` (stereo not drawn) [CBK262878], the viability at 28.5 h, 10 µM is 91%.

In the case of `COc1ccc(CN2CCCn3c4c(c5cc(C)ccc53)CCCC42)cc1OCc1ccccc1` (stereo not drawn) [CBK262879], the viability at 28.5 h, 10 µM was 96.4%.

With `COc1cc(/C=N/NC(=O)c2n[nH]c3c2CCC3)ccc1O` [CBK262881], the viability at 28.5 h, 10 µM was 109%.

On to `O=C(N/N=C/c1ccccn1)c1n[nH]c2c1CCCC2` [CBK262882], for which the viability at 28.5 h, 10 µM turned out to be 90.8%.

In the case of `O=C(N/N=C/c1c[nH]c2ccccc12)c1cc(-c2ccc3ccccc3c2)[nH]n1` [CBK262885], the viability at 28.5 h, 10 µM was 54.8%.

With `Cc1n[nH]c(C)c1CCC(=O)N/N=C/c1ccccn1` [CBK262887], the viability at 28.5 h, 10 µM worked out at 92.9%.

Turning to `Cc1n[nH]c(C)c1CCC(=O)N/N=C/c1ccncc1` [CBK262888], the viability at 28.5 h, 10 µM came to 112%.

For the compound `Cn1c(=O)c2[nH]c(NN=C3C(=O)NC(=O)NC3=O)nc2n(C)c1=O` [CBK262891], the viability at 28.5 h, 10 µM (bulk resorufin, single well) turned out to be 103%.

As to `COc1ccc(/C=N/NC(=O)CCc2c(C)n[nH]c2C)cc1O` [CBK262894], the viability at 28.5 h, 10 µM came out at 93.6%.

With `N=c1n(CCN2CCOCC2)c2ccccc2n1CC(O)c1cccs1` (stereo not drawn) [CBK262895C], the viability at 28.5 h, 10 µM came to 99.1%.

As for `CCCC1=NN(c2ccc([N+](=O)[O-])cc2)C(=O)/C1=C/NC1CC(C)(C)NC(C)(C)C1` [CBK262896], the viability at 28.5 h, 10 µM was determined as 84.9%.

For `OCCCn1c(-c2ccc(Cl)cc2)cn2c3ccccc3nc12` [CBK262900], the viability at 28.5 h, 10 µM was determined as 103%.

For `COC(=O)c1ccc(/C=N/NC(=O)CCc2c(C)n[nH]c2C)cc1` [CBK262904], the viability at 28.5 h, 10 µM is 117%.

Take `CC(C)(C)c1cc(-n2c(-c3cccnc3)nc3ccccc32)cc(C(C)(C)C)c1O` [CBK262907]: the viability at 28.5 h, 10 µM was found to be 103%.

Regarding `N=c1n(CCN2CCCCC2)c2ccccc2n1CC(O)c1cccs1` (stereo not drawn) [CBK262908C], the viability at 28.5 h, 10 µM is 94.9%.

For the compound `CN1CCc2c(sc3c2C(=O)NC(/C=C\c2ccc([N+](=O)[O-])cc2)N3)C1` (stereo not drawn) [CBK262909], the viability at 28.5 h, 10 µM is 86.3%.

In the case of `Cc1n[nH]c(C)c1CCC(=O)N/N=C/c1cccc(O)c1` [CBK262910], the viability at 28.5 h, 10 µM worked out at 97.7%.

On to `CCOc1ccc(C(O)Cn2c(=N)n(CCN3CCCCC3)c3ccccc32)cc1` (stereo not drawn) [CBK262913C], for which the viability at 28.5 h, 10 µM amounted to 111%.

With `N=c1n(CC(=O)O)c2ccccc2n1Cc1ccccc1Cl` [CBK262917B], the viability at 28.5 h, 10 µM came to 90.3%.

`COc1cc2c(cc1OC)CN(/C=N/c1sc3c(c1C#N)CC(C)(C)NC3(C)C)CC2` [CBK262918]: the viability at 28.5 h, 10 µM was found to be 105%.

Take `Cc1cc(=O)n2ncnc2n1COCCO` [CBK262919]: the viability at 28.5 h, 10 µM came out at 97.4%.

Turning to `CC1=NN(c2ccc([N+](=O)[O-])cc2)C(=O)/C1=C/NCCN1CCN(C(=O)c2ccc(F)cc2)CC1` [CBK262920], the viability at 28.5 h, 10 µM is 95.1%.

Regarding `CC1=NNC(=O)C1CCC(=O)N/N=C/C(Br)=C/c1ccccc1` (stereo not drawn) [CBK262929], the viability at 28.5 h, 10 µM was 100%.

As for `O=C(Cn1nnc2ccccc21)N/N=C\c1cccc(Cl)c1Cl` [CBK262931], the viability at 28.5 h, 10 µM turned out to be 92.4%.

Regarding `C/C(=N/OCC(=O)Nc1oc(-c2ccccc2)c(-c2ccccc2)c1C#N)c1cccs1` [CBK262932], the viability at 28.5 h, 10 µM stood at 89.6%.

Turning to `Cc1ccc(S(=O)(=O)NCCCN2CCOCC2)cc1C` [CBK262934], the viability at 28.5 h, 10 µM came out at 96.6%.

Consider `c1ccc(OCc2nc3c4c(-c5ccccc5)c(-c5ccccc5)oc4ncn3n2)cc1` [CBK262939], for which the viability at 28.5 h, 10 µM was 94.6%.

For the compound `CNC(=S)N(Cc1ccc(S(N)(=O)=O)cc1)C1CC(=O)N(c2ccc(OC)cc2)C1=O` (stereo not drawn) [CBK262940], the viability at 28.5 h, 10 µM came to 95.1%.

For `CC1(C)CC(=O)C2=C(C1)c1c(ccc3ccccc13)NC2c1ccc(N2CCC(Cc3ccccc3)CC2)c([N+](=O)[O-])c1` (stereo not drawn) [CBK262944], the viability at 28.5 h, 10 µM amounted to 94.2%.

Regarding `CCn1c2ccccc2c2ccc(/C=N/NC(=O)c3ccc(O)cc3O)cc21` [CBK262948], the viability at 28.5 h, 10 µM amounted to 56.9%.

Turning to `O=C(COc1ccc(Cl)cc1Br)NNC(=O)c1ccc(O)cc1` [CBK262950], the viability at 28.5 h, 10 µM turned out to be 95.5%.

Take `O=C(NCc1ccccc1)C(=O)NNC(=O)C12CC3CC(CC(C3)C1)C2` [CBK262951]: the viability at 28.5 h, 10 µM was determined as 94.9%.

As to `COc1cc2c(cc1NC(=O)C/C(C)=N/NC(=O)c1ccoc1C)oc1ccccc12` [CBK262953], the viability at 28.5 h, 10 µM was 112%.

`O=C(NCCCn1ccnc1)c1ccccc1C(=O)c1ccccc1` [CBK262954]: the viability at 28.5 h, 10 µM came to 93.2%.

Turning to `COc1ccccc1CC(=O)NNC(=O)c1ccco1` [CBK262956], the viability at 28.5 h, 10 µM is 91.6%.

For the compound `C/C(CC(=O)Nc1ccccc1C(N)=O)=N\NC(=O)c1ccoc1C` [CBK262957], the viability at 28.5 h, 10 µM worked out at 100%.

Turning to `COc1cc2c(cc1NC(=O)c1cccc([N+](=O)[O-])c1)oc1ccccc12` [CBK262958], the viability at 28.5 h, 10 µM came out at 94.4%.

On to `O=C(COc1ccccc1)Nc1ccc2oc(-c3cccnc3)nc2c1` [CBK262959], for which the viability at 28.5 h, 10 µM is 92.1%.

As for `COc1cc(/C=C2/C(=O)N(c3ccc(Cl)c(C(=O)O)c3)N=C2C)ccc1Oc1nc2c(c(=O)n(C)c(=O)n2C)n1C` [CBK262962], the viability at 28.5 h, 10 µM was determined as 91.1%.

Take `Cc1ccc(N2NC(=O)/C(=C/c3ccc(-c4ccc5c(c4)C(=O)NC5=O)o3)C2=O)cc1C` [CBK262963]: the viability at 28.5 h, 10 µM stood at 81.6%.

Regarding `O=C1NN(c2ccc(Br)cc2)C(=O)/C1=C\c1ccc(-c2ccc3c(c2)C(=O)NC3=O)o1` [CBK262968], the viability at 28.5 h, 10 µM amounted to 111%.

In the case of `O=C1NN(c2cccc(Cl)c2)C(=O)/C1=C\c1ccc(-c2ccc3c(c2)C(=O)NC3=O)o1` [CBK262970], the viability at 28.5 h, 10 µM was found to be 93.4%.

As to `COc1cccc(C2CC(=O)c3c(ccc4ccccc34)N2)c1OC` (stereo not drawn) [CBK262971], the viability at 28.5 h, 10 µM is 94.1%.

On to `NNC(=O)CNC(c1cc(Br)ccc1N)c1ccccc1Cl` (stereo not drawn) [CBK262977], for which the viability at 28.5 h, 10 µM amounted to 87.1%.

On to `COc1ccc(OC)c(NC(=O)CN2CCN(c3ccccn3)CC2)c1` [CBK262978], for which the viability at 28.5 h, 10 µM stood at 83.7%.

As to `CC(CC(=O)C1C(C)C=CCC1(C)C)NNC(=O)c1ccccc1O` (stereo not drawn) [CBK262980], the viability at 28.5 h, 10 µM came out at 91.6%.

`CCOC(=O)c1c(NC(=O)CCN2C(=O)c3cccc4cccc(c34)C2=O)sc2c1CCC2` [CBK262982]: the viability at 28.5 h, 10 µM was found to be 111%.

As to `CCN(CC)CC(=O)Nc1ccc(Br)cc1C(=O)c1ccccc1` [CBK262983], the viability at 28.5 h, 10 µM turned out to be 109%.

For the compound `O=C(O)Cc1nnnn1-c1ccccc1` [CBK262984], the viability at 28.5 h, 10 µM was found to be 102%.

For the compound `O=C1c2ccccc2NC(c2ccc(O)cc2)N1/N=C/c1ccc(O)cc1` (stereo not drawn) [CBK262985], the viability at 28.5 h, 10 µM was determined as 84.5%.

Usually viability stands for a read-out of living cells in per cent, often relative to untreated cells.

The values above are taken from article PMC12040169 (PLOS Biology, 2025).
